Results from patent US20230001010A1, “COMPOSITIONS AND METHODS FOR TREATING AUTOIMMUNE DISORDERS” (The Regents of the University of Michigan, priority 2019, published 2023).

Assays:
[1] = tested on: experimental autoimmune encephalomyelitis (EAE); assay: Experimental autoimmune encephalomyelitis (EAE) mouse model, pathological score; assay type: in vivo, C57BL/6 mice; conditions: for time until mice were moribund: treated on days 2, 9 and 16; for average pathological score: treated s.c. on days 2, 9 and 16
Procedure: (§1) HDL nanodisc was prepared as previously described. Briefly, DMPC was dissolved in chloroform, which was evaporated with nitrogen flow and under vacuum for at least 1 h. The resulting lipid film was hydrated in 10 mM sodium phosphate buffer and sonicated in a bath sonicator for 10 min. ApoA1 mimetic peptide 22A dissolved in endotoxin free water was added to the above mixture (22A:DMPC=1:2 weight ratio) to obtain nanodiscs. To load MOG antigen peptide in nanodiscs, each antigen peptide was reacted with 4-(4-maleimidophenyl)-butyric DOPE for 3 h in dimethylformamide (DMF), which was removed by freeze-drying after dilution 10× with endotoxin-free water. The lipid-peptide conjugates were dissolved in DMSO and added to pre-formed sHDL and incubated for 30 min at room temperature. Unreacted MOG peptides were removed by using Zeba Spin Desalting columns (Pierce) following the manufacturer's instructions. The conjugation efficiency of MOG peptide was determined by LC-MS and gel permeation chromatography (GPC). EAE was induced in female C57BL/6 mice by inoculation with 100 μg of MOG in complete Freund's adjuvant on day 0 following the administration of pertussis toxin. Mice were then injected subcutaneously at tail base for therapeutic study with sHDL-MOG, MOG or PBS on indicated days. Mice were weighed and scored daily based on the following guideline: 0, no sign of disease; 1, loss of tone in the tail; 2, hind limb paresis; 3, hind limb paralysis; 4, tetraplegia; and 5, moribund.
EAE-induced mice were administered s.c. with PBS or HDL-MOG on days 15, 22, and 29, and a subset of animals also received i.p. administration of […] to deplete Tregs at the specified time points (FIG. 13).
We examined the therapeutic potential of HDL-FTY720 in the EAE model. EAE was initiated as described above. Briefly, EAE was induced in mice as indicated above. Mice received i.p. administration of PBS or HDL-FTY720 (1 mg/kg) on days 14, 21, and 28. Mice were scored daily and assigned EAE scores as indicated above.

[2] = tested on: CNS tissues of EAE mice; assay: Cytokine release from CNS cells of treated EAE mice after ex vivo MOG35-55 re-stimulation (ELISA); assay type: in vivo, C57BL/6 mice; conditions: day 40, pulsed ex vivo with MOG35-55
Procedure: FIG. 6A is a schematic diagram depicting the treatment regimen. FIG. 6B are graphs showing the amount of GM-CSF, IFN-gamma, and IL-17 released after ex vivo treatment of CNS tissues with MOG35-55 peptide.
Briefly, female C57BL/6 mice were injected subcutaneously with an emulsion of MOG35-55 ([…], SEQ ID NO: 830) in complete Freund's adjuvant (CFA) and intraperitoneal (i.p.) injection of pertussis toxin (120 ng/dose on days 0 and 2). EAE-induced mice were treated with PBS, free MOG, HDL-MOG, or HDL-M30 (irrelevant CD4+ T cell epitope from B16F10 tumor cells) and CNS tissues were harvested on day 40 (FIG. 10A). CNS tissues were harvested from mice after intracardiac perfusion with PBS. Spinal cord was harvested, homogenized in 10 ml of PBS containing 1% BSA, and pelleted at 800×g for 5 min. Cell pellets were resuspended in 3 ml of collagenase A (1 mg/ml) and DNase I (1 mg/ml) in HBSS and incubated in a 37° C. water bath for 30 min. Samples were pelleted at 800×g, resuspended in 27% Percoll, and centrifuged for 10 min at 800×g. The myelin/debris layer and Percoll were removed, and the cell pellet was stained and analyzed by flow cytometric analysis. Splenic immune cells were isolated by homogenization through a 70 µm strainer (BD Falcon). RBCs were lysed using ACK lysis buffer. Cells were washed with 25 ml of PBS, centrifuged at 800×g, resuspended in FACS buffer, and stained with antibodies. For the cellular surface staining, cells were resuspended in PBS with a fixable viability dye (BV510) for 10 min. Then, cells were washed two times with FACs buffer and resuspended in Fc Block (anti-CD16/32; 100 ng/ml). For ex vivo re-stimulation, cells were incubated for 96 hr with MOG35-55 before brefeldin A (BFA) (5 μg/ml) was added for 4 h. For intracellular staining, cells were stained for surface markers, fixed/permeabilized, and stained with antibody for 30 min on the ice. After 2× washing, cells were resuspended in FACS buffer and analyzed by flow cytometric analysis. Data were collected with a Cytek Aurora flow cytometer using FCS express software (V7). […]

[3] = tested on: Tregs in the CNS; assay: Frequency of Tregs in CNS of EAE mice (flow cytometry); assay type: in vivo; conditions: EAE-induced mice; day 40
Procedure: Cells from CNS were stained by anti-CD25, anti-CD4, and MOG-tetramer, followed by fixation/permeabilization and intracellular staining with anti-Foxp3. Stained cells were then analyzed by flow cytometry. […] On the other hand, mice treated with free MOG peptide or HDL-M30 had basal level of Tregs as in PBS-treated EAE mice (FIGS. 12A-12B).

[4] = tested on: CD4+ T cells from CNS cells; assay: Intracellular cytokine staining of CD4+ T cells from CNS; assay type: in vivo, C57BL/6 mice; conditions: day 40
Procedure: (§2) Briefly, female C57BL/6 mice were injected subcutaneously with an emulsion of MOG35-55 ([…], SEQ ID NO: 830) in complete Freund's adjuvant (CFA) and intraperitoneal (i.p.) injection of pertussis toxin (120 ng/dose on days 0 and 2). EAE-induced mice were treated with PBS, free MOG, HDL-MOG, or HDL-M30 (irrelevant CD4+ T cell epitope from B16F10 tumor cells) and CNS tissues were harvested on day 40 (FIG. 10A). CNS tissues were harvested from mice after intracardiac perfusion with PBS. Spinal cord was harvested, homogenized in 10 ml of PBS containing 1% BSA, and pelleted at 800×g for 5 min. Cell pellets were resuspended in 3 ml of collagenase A (1 mg/ml) and DNase I (1 mg/ml) in HBSS and incubated in a 37° C. water bath for 30 min. Samples were pelleted at 800×g, resuspended in 27% Percoll, and centrifuged for 10 min at 800×g. The myelin/debris layer and Percoll were removed, and the cell pellet was stained and analyzed by flow cytometric analysis. Splenic immune cells were isolated by homogenization through a 70 µm strainer (BD Falcon). RBCs were lysed using ACK lysis buffer. Cells were washed with 25 ml of PBS, centrifuged at 800×g, resuspended in FACS buffer, and stained with antibodies. For the cellular surface staining, cells were resuspended in PBS with a fixable viability dye (BV510) for 10 min. Then, cells were washed two times with FACs buffer and resuspended in Fc Block (anti-CD16/32; 100 ng/ml). For ex vivo re-stimulation, cells were incubated for 96 hr with MOG35-55 before brefeldin A (BFA) (5 μg/ml) was added for 4 h. For intracellular staining, cells were stained for surface markers, fixed/permeabilized, and stained with antibody for 30 min on the ice. After 2× washing, cells were resuspended in FACS buffer and analyzed by flow cytometric analysis. Data were collected with a Cytek Aurora flow cytometer using FCS express software (V7).
(§3) On day 40, CNS tissues were isolated and pulsed ex vivo with MOG35-55 peptide, followed by measurement of IL-17, IFN-gamma, and GM-CSF by ELISA (FIG. 10B). […]

[5] = Antigen / drug loading efficiency in HDL nanodiscs (HPLC/MS); assay type: physicochemical; conditions: for loading efficiency in HDL: antigen / antigen-lipid conjugate loaded into HDL nanodiscs, HPLC/MS; for drug encapsulate efficiencies: drug in HDL nanodiscs, HPLC-MS
Procedure: as §1
To produce HDL nanodiscs carrying immunomodulatory drugs, 22A, and DMPC were dissolved in acetic acid and freeze-dried overnight as shown above. Drugs (FTY720, ITE, TSA, or SAHA) were dissolved in chloroform and added to lyophilized powder, followed by drying overnight in vacuum oven. Dried samples were rehydrated by 10 mM phosphate buffer. After three heat-cooling cycles, HDL-loaded with drugs were performed. The concentration of each drug was measured by HPLC-MS as shown for FTY720, ITE, TSA, or SAHA (FIGS. 14-17, respectively). Free drugs were used to generate standard curves. […] Samples were also analyzed by dynamic light scattering (DLS) for the particle sizes. […] We also analyzed HDL-FTY720 samples using gel permeation chromatography (GPC) (FIG. 19).
We synthesized HDL nanodiscs loaded with other CD4+ T cell epitopes for validation of our approach. We have synthesized phospholipids conjugated to either Ea chain 52-68 peptide (EA, ASFEAQGALANIAVDKA (SEQ ID NO: 831)), ovalbumin-II 323-339 peptide (OVA-II, ISQAVHAAHAEINEAGR (SEQ ID NO: 832)), and type-II collagen 250-270 peptide (CIA, […] (SEQ ID NO: 833)), each modified with CSS-peptide at N-terminus. Antigen-lipid conjugates were loaded into HDL nanodiscs as described above and analyzed by HPLC/MS and DLS. EA, OVA-II, and CIA peptides were conjugated to MPB-phospholipids with ˜95% conjugation efficiency (FIGS. 22-25). Antigen-lipid conjugates were efficiently loaded into HDL nanodiscs with ˜90%, ˜84%, and ˜78% loading efficiency for EA, OVA-II, and CIA peptides, respectively (FIGS. 22-25).

[6] = tested on: CD4+ T cells from splenocytes; assay: Intracellular cytokine staining of CD4+ T cells from splenocytes; assay type: in vivo, C57BL/6 mice; conditions: spleen; day 40
Procedure: as §2, §3

[7] = harsh EAE induced with MOG1-125

CCCCCCCCc1ccc(CCC(N)(CO)CO)cc1 [FTY720, Fingolimod]
EAE score ([1]; FTY720 0.3 mg/Kg oral daily for 30 days starting day 30): 3
EAE score ([1]; FTY720 1 mg/Kg oral daily for 30 days starting day 30): 1
day by which mice had to be euthanized after treatment stopped ([1]; FTY720 oral daily for 30 days starting day 15): ≤ 55 days
day by which mice had to be euthanized after treatment stopped ([1]; FTY720 oral daily for 30 days starting day 30): ≤ 90 days
EAE score ([1]; treatment started day 15: HDL-MOG s.c. days 15, 22, 29, followed 85 days, FTY720 oral daily for 30 days): above 2

MEVGWYRSPFSRVVHLYRNGK [free MOG peptide]
level of GM-CSF in CNS [2]: high levels
level of IFN-gamma in CNS [2]: high levels
level of IL-17 in CNS [2]: high levels
time until mice were moribund [1, 7]: ≤ 20 days
average pathological score [1, 7]: 5
time until mice were moribund ([1]; mild EAE induced with MOG35-55): ≤ 20 days
average pathological score ([1]; mild EAE induced with MOG35-55): 5
frequency of CD25+Foxp3+ Tregs in the CNS [3]: basal level
frequency of CD4+ T cells producing GM-CSF [4]: high frequencies
frequency of CD4+ T cells producing IFN-gamma [4]: high frequencies
frequency of CD4+ T cells producing IL-17 [4]: high frequencies
loading efficiency in HDL [5]: ~90%
frequency of CD4+ T cells producing GM-CSF [6]: high frequencies
frequency of CD4+ T cells producing IFN-gamma [6]: high frequencies
frequency of CD4+ T cells producing IL-17 [6]: high frequencies

COC(=O)c1csc(C(=O)c2c[nH]c3ccccc23)n1 [ITE, 2-(1′H-indole-3′-carbonyl)-thiazole-4-carboxylic acid methyl ester]
drug encapsulate efficiencies [5]: ~95%

CC(/C=C/C(=O)NO)=C\[C@@H](C)C(=O)c1ccc(N(C)C)cc1 [TSA, Trichostatin A]
drug encapsulate efficiencies [5]: ~80%

ISQAVHAAHAEINEAGR [OVA-II, ovalbumin-II 323-339 peptide, modified with CSS-peptide at N-terminus]
loading efficiency in HDL [5]: ~84%
